Data set [1] has as its system α2 adrenergic receptor (α2-ADR). Description: GiPCR signaling by cellular dielectric spectroscopy (CDS), oxymethazolin stimulation of osteoblasts. It counts as cell-based, mouse. The following applies: osteoblasts from bipedal WT and PTPμ−/− mice, different concentrations (FIG. 3). How it is done:
(§1) The signaling capacity of G proteins was assessed from osteoblast cultures using cellular dielectric spectroscopy (CDS) performed on a CellKey™ apparatus (MDS Sciex, San Francisco, Calif.), as described in Akoume, et al., 2010 and WO 2010/040234, 2010 to Moreau et al. To assess GiPCR cell signaling, specific agonists that bind to GiPCR and regulate Gi proteins were used: Apelin-17, Oxymethazolin and Somatostatin (Som) (Tocris Bioscience, Canada).
To examine the impact of PTPμ deficiency on this defect, osteoblasts from bipedal WT and PTPμ^−/− mice were screened for their response to three GiPCR selective agonists identified in (FIG. 2). In agreement with previous results (Akoume et al Spine 2010), all three compounds evoked typical CDS response profiles of GiPCR in WT osteoblasts. Consistent with Gi coupling for their cognate receptors in these cells, response to each of the three tested compounds was blocked by pre-treatment with PTX (FIGS. 2 A-F). Similar results were obtained with PTPμ^−/− osteoblasts (FIGS. 2 G-L). […] However, in each case, osteoblasts from PTPμ^−/− mice were less responsive than those from WT mice, but EC50 values were similar in both groups (FIGS. 3 A-C).

Data set [2] addresses T1, Apelin receptor (APJR) (Mus musculus, UniProt Q9WV08).
T1 construct: The signaling capacity of G proteins was assessed from osteoblast cultures using cellular dielectric spectroscopy (CDS); endogenous in cells; host or cells: primary spine osteoblasts from bipedal C57Bl/6j WT and PTPμ-/- mice
T1 sequence (Q9WV08 1-377): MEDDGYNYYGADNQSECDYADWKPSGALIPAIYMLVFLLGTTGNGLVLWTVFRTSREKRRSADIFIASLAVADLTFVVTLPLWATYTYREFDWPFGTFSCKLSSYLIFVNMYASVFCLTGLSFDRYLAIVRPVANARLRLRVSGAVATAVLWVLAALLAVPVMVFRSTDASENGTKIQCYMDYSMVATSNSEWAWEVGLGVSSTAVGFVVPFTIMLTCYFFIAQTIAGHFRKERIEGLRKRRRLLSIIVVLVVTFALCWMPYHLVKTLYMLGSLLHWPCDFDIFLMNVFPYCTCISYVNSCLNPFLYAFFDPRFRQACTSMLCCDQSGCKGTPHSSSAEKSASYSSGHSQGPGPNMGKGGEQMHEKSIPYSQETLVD
Description: GiPCR signaling by cellular dielectric spectroscopy (CDS), apelin-17 stimulation of osteoblasts. It counts as cell-based. The note with it: osteoblasts from bipedal WT and PTPμ−/− mice, different concentrations (FIG. 3).

The target in data set [3] is T2, OPN (Mus musculus, UniProt P10923).
T2 construct: endogenous in cells; host or cells: primary spine osteoblasts from bipedal C57Bl/6j WT and PTPμ-/- mice, transfected with OPN siRNA
Put plainly: OPN knockdown by siRNA in osteoblasts, response to GiPCR stimulation (CDS). The note with it: WT and PTPμ−/− osteoblasts (FIGS. 3 F-H). It counts as cell-based. How it is done: as §1
(§2) Primary osteoblast cell cultures from C57BI/6j WT and C57B/6j PTPμ^−/− were cultured (as described above). Lipofectamine™ RNAiMAX (Invitrogen) was applied for siRNA transfection according to the manufacturer's instructions. The sequence of RNA oligo used for the knockdown of OPN is ([…] (SEQ ID NO: 25)). The cells were harvested for RNA extraction after 48 hrs. The same procedure was followed for phosphatidylinositol-phosphate kinase type I gamma (PIPK1γ). The sequence of RNA oligo used for the knockdown of PIPK1γ is ([…] (SEQ ID NO: 26)).
To relate these findings to the OPN action, the small interference RNA (siRNA) approach was used to knockdown the expression of OPN in WT and PTPμ^−/− osteoblasts.

Data set [4] relates to G αi proteins. Description: Pertussis toxin pre-treatment of osteoblasts before GiPCR agonist stimulation (CDS). It counts as cell-based, mouse. The note with it: osteoblasts from bipedal WT and PTPμ−/− mice; agonists oxymethazolin, somatostatin, apelin-17 (FIG. 2).
Description: Furthermore, Pertussis toxin (PTX) (Sigma Aldrich, Canada) was used to determine if the effect of the agonists was related to G αi proteins.
Data set [5] relates to GiPCR signaling. Put plainly: Exogenous recombinant OPN treatment of osteoblasts prior to GiPCR stimulation (CDS). It counts as cell-based, mouse. The following applies: WT and PTPμ−/− osteoblasts, varying concentrations of rOPN (FIGS. 4 A-C). As for the experimental part: as §1
WT and PTPμ^−/− osteoblasts were treated with varying concentrations of exogenous recombinant OPN (rOPN) prior to GiPCR stimulation with agonists identified in FIGS. 4 A-C.

The target of data set [6] is T3, PIPK1γ (Mus musculus, UniProt O70161).
T3 construct: endogenous in cells; host or cells: primary spine osteoblasts from bipedal C57Bl/6j WT and PTPμ-/- mice
Put plainly: PIPK1γ knockdown by siRNA in osteoblasts, response to somatostatin stimulation (CDS). It counts as cell-based. The following applies: varying concentrations of somatostatin, vs scrb (FIG. 6H). How it is done: as §1, §2
To further assess the implication of PIPK1γ in the mechanism of action behind PTPμ deficiency, a SiRNA approach was used to knockdown the expression of PIPK1γ in WT and PTPμ^−/− osteoblasts prior to initiating GiPCR signaling with somatostatin stimulation. Efficiency of siRNA in WT and PTPμ^−/− osteoblasts was confirmed by qPCR and Western blot analysis (FIGS. 6 B and C). […]

T3 sequence (O70161 whole entry): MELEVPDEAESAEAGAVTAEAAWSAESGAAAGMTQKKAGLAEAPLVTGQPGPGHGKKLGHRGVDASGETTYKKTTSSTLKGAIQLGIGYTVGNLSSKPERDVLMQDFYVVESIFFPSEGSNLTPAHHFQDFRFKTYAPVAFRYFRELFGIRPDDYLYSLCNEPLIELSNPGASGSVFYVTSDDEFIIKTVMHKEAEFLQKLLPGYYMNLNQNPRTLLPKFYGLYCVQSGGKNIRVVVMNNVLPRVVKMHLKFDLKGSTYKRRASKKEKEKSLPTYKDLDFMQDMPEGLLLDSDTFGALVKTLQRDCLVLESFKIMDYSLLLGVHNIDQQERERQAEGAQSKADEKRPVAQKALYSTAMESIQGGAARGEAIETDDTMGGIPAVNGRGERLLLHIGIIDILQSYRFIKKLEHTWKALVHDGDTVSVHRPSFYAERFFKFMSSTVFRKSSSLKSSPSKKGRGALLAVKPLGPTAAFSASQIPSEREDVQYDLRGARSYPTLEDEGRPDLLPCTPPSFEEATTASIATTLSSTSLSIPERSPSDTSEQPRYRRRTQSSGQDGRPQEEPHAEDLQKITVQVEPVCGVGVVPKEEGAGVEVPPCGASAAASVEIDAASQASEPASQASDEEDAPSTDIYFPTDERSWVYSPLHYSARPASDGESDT
T2 sequence (P10923 17-294): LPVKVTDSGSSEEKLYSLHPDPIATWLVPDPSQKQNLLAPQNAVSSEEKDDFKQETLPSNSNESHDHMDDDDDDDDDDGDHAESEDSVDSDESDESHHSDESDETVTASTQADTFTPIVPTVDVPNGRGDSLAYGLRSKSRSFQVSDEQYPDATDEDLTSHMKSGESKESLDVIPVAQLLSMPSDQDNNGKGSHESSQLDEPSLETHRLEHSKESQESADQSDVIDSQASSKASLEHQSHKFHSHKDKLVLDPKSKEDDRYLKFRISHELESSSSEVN

In the case of `Cc1cc(C(C)(C)C)c(O)c(C)c1CC1=NCCN1` [oxymethazoin, Oxymethazolin], the “CDS response to agonist” value in data set [1] is “increased response in a concentration-dependent manner”.
Take Apelin-17: the “CDS response to agonist” value in data set [2] is “increased response in a concentration-dependent manner”.
In the case of “OPN siRNA: RNA oligo used for the knockdown of OPN: CCACAGCCACAAGCAGUCCAGAUUA (SEQ ID NO: 25) (CCACAGCCACAAGCAGUCCAGAUUA; listed as RNA, chemistry not given here)”, the “response to GiPCR stimulation after deletion of OPN” value in data set [3] is reported as “enhanced response to GiPCR stimulation”.
Turning to Pertussis toxin [PTX], the “effect of pre-treatment on Gi coupling of agonists to their cognate receptors” value in data set [4] is “blocked the Gi coupling”.
Turning to “rOPN: exogenous recombinant OPN (osteopontin)”, the “integrated response to GiPCR stimulation” value in data set [5] is recorded as “decrease in the integrated response in a concentration-dependent manner”.
For the compound “siPIPK1: RNA oligo used for the knockdown of PIPK1γ: CCUCCACAUCGGGAUUGAUAUU (SEQ ID NO: 26) (CCUCCACAUCGGGAUUGAUAUU; listed as RNA, chemistry not given here)”, the “response to somatostatin stimulation after depletion of PIPK1γ” value in data set [6] (WT osteoblasts) is on record as “same response”; in data set [6] (osteoblasts from PTPμ deficiency mice) it was “enhanced response to somatostatin stimulation”.

The values are drawn from patent US9989531B2, “Composition comprising a cell sample from a subject with scoliosis and a reagent for detecting PTPμ or PIPK1y” (Chu Sainte-Justine, priority 2013, dated 2018).
